# Values of other authors in patent US12109298B2, “Improving the fastness to washing of pigment-containing dyes by using an oxidative pretreatment agent” (Henkel AG & Co. KGaA, priority 2020, dated 2024).
# Read-outs that look alike come from different tables or passages of the source.
# Key:
# [1] = 25° C.
# [2] = 5% solution in water
Compound,solubility in water [1],further results
CCN(Cc1cccc(S(=O)(=O)[O-])c1)c1ccc(C(=C2C=CC(=[N+](CC)Cc3cccc(S(=O)(=O)[O-])c3)C=C2)c2ccccc2S(=O)(=O)[O-])cc1.[Na+].[Na+] [Acid Blue 9],more than 20 wt. %,–
"O=S(=O)([O-])c1ccc(N=Nc2c(O)ccc3ccccc23)cc1.[Na+] [Acid Orange 7, sodium salt of 4-[(2-hydroxy-1-naphthyl)azo]benzene sulfonate]",more than 7 g/L,–
"Nc1cc(S(=O)(=O)[O-])cc2cc(S(=O)(=O)[O-])c(N=Nc3ccccc3)c(O)c12.[Na+].[Na+] [Acid Red 33, diantrium salt of 5-amino-4-hydroxy-3-(phenylazo)-naphthalene-2,7-disulphonate]",2500 µg/mL,–
"O=C([O-])c1c(Cl)c(Cl)c(Cl)c(Cl)c1-c1c2c(Br)cc(=O)c(Br)c-2oc2c(Br)c(O)cc(Br)c12.O=C([O-])c1c(Cl)c(Cl)c(Cl)c(Cl)c1-c1c2c(Br)cc(=O)c(Br)c-2oc2c(Br)c(O)cc(Br)c12.[Na+].[Na+] [Acid Red 92, disodium salt of 3,4,5,6-tetrachloro-2-(1,4,5,8-tetrabromo-6-hydroxy-3-oxoxanthen-9-yl)benzoic acid]",greater than 10 g/L,–
"O=C([O-])C1=NN(c2ccc(S(=O)(=O)[O-])cc2)C(=O)C1N=Nc1ccc(S(=O)(=O)[O-])cc1.[Na+].[Na+].[Na+] (stereo not drawn) [Acid Yellow 23, trisodium salt of 4,5-dihydro-5-oxo-1-(4-sulfophenyl)-4-((4-sulfophenyl)azo)-1H-pyrazole-3-carboxylic acid]",–,solubility in water ([1]; in words): readily soluble in water
O=P([O-])(O)O.[K+] [Potassium dihydrogen phosphate],–,pH value [2]: 4.4
